Experimental data: article PMC11487561 (ACS Chemical Neuroscience, 2024)

Legend:
human M1 = human M1 (Homo sapiens, UniProt P11229); experiment: Calcium mobilization assay, muscarinic selectivity; type: cell-based
CYP 2D6 = target: T1, CYP 2D6 (Homo sapiens, UniProt P10635); experiment: P450 inhibition in pooled human liver microsomes; type: in vitro ADME; details: pooled HLM, NADPH, CYP-specific probe substrates
T1 construct: from tissue; host or cells: pooled human liver microsomes (according to the earlier reading)

In vivo dog iv/po PK = experiment: In vivo dog iv/po PK
Procedure: Intravenous pharmacokinetics and plasma-brain level determination (IV PK PBL) VU6016235 […]
For dog PK, VU6016235 was formulated in 10% (2-Hydroxypropyl)-beta-cyclodextrin (HPbCD) at a concentration of 0.5 mg/ml and administered as a single dose of 0.5 mg/kg to male beagles (1 ml/kg, n=3).
Blood samples were collected serially from a surgically implanted carotid artery catheter in each animal over multiple post-administration time points (0.033, 0.117, 0.25, 0.5, 1, 2, 4, 7, and 24 hours) into chilled, K2EDTA anticoagulant-fortified tubes and immediately placed on wet ice. […]
over multiple post-administration time points (0.25, 0.5, 1, 2, 4, 7, and 24 hours) into chilled, K2EDTA anticoagulant-fortified tubes and immediately placed on wet ice. The blood samples were then centrifuged (1700 rcf, 5 minutes, 4 °C) in order to obtain plasma samples, which were stored at -80 °C until analysis […]
Samples preparation for bioanalysis
Plasma samples from the in-life phase of the study were thawed at ambient temperature (benchtop), and then aliquots (20 µL per sample) were transferred to a 96-shallow-well (V-bottom) plate. Matrix-matched quality control (QC) samples and a standard curve of […] (1 mg/mL DMSO stock solution) were prepared in blank rat plasma (K2EDTA-treated) or blank brain homogenate via serial dilution and transferred (20 µL each) to the plate along with multiple blank plasma and brain homogenate samples. Acetonitrile (120 µL) containing IS (10 nM carbamazepine) was added to each well of the plate to precipitate protein. The plate was then centrifuged (4000 rcf, 5 minutes, ambient temperature), and resulting supernatants (60 µL each) were transferred to a new 96-shallow-well (V-bottom) plate containing an equal volume (60 µL per well) of water (Milli-Q purified). […]
The plasma standard curve and QCs were used for compounds quantitation in brain.
Binding in plasma from rat and human.
Determination of compounds’ fraction unbound (f u) in plasma from rat and human was conducted in vitro via equilibrium dialysis using HTDialysis membrane plates. Dialysis membranes (four paired strips per HTD assay) were hydrated as described by the manufacturer and inserted into the HTD plate, which was assembled and prepared for sample addition by the dispensing of blank buffer (DPBS, 100 µL/well) into the ‘top half’ of each membrane-split well. Each compound was diluted into plasma from each species (5 µM final concentration), which was aliquoted in triplicate to the ‘bottom half’ of the prepared HTD plate wells. The HTD plate was sealed and incubated for 6 hours at 37 °C. Following incubation, each well (both top and bottom halves) were transferred (20 µL) to the corresponding wells of a 96-shallow-well (V-bottom) plate. The daughter plates were then matrix-matched (buffer side wells received equal volume of plasma, and plasma side wells received equal volume of buffer), and extraction solution (120 µL; acetonitrile containing 50 nM carbamazepine as IS) was added to all wells of both daughter plates to precipitate protein and extract test article. The plates were then sealed and centrifuged (3500 rcf) for 10 minutes at ambient temperature. Supernatant (60 µL) from each well of the daughter plates was then transferred to the corresponding wells of new daughter plates (96-shallow-well, V bottom) containing water (Milli-Q, 60 µL/well), and the plates were sealed in preparation for LC-MS/MS analysis (see below). fu was calculated as (analyte to IS MS peak area ratio from Trans-buffer side) / (analyte to IS MS peak area ratio from Cis-plasma side). Mean values for each species were calculated from 3 replicates.

4 strains ± S9 = experiment: Mini Ames test; type: cell-based
Adenosine A2A = target: T2, Adenosine A2A (Homo sapiens, UniProt P29274); experiment: Lead Profiling Screen – Eurofins Panlabs; type: binding; details: read-out: % inh at 10 μM
T2 construct: Eurofins Panlabs

Bradykinin B1 = target: T3, Bradykinin B1 (Homo sapiens, UniProt P46663); experiment: Lead Profiling Screen – Eurofins Panlabs; type: binding; details: read-out: % inh at 10 μM
T3 construct: Eurofins Panlabs (contract screen)

[1] = tested on: Calcium Channel L-Type, Dihydropyridine; experiment: Lead Profiling Screen – Eurofins Panlabs; type: binding, rat
[2] = tested on: GABAA, Flunitrazepam, Central; experiment: Lead Profiling Screen – Eurofins Panlabs; type: binding, rat
Glucocorticoid = Glucocorticoid (Homo sapiens, UniProt P04150); experiment: Lead Profiling Screen – Eurofins Panlabs; type: binding; details: read-out: % inh at 10 μM
[3] = tested on: Glutamate, NMDA, Phencyclidine; experiment: Lead Profiling Screen – Eurofins Panlabs; type: binding, rat
Histamine H1 = Histamine H1 (Homo sapiens, UniProt P35367); experiment: Lead Profiling Screen – Eurofins Panlabs; type: binding; details: read-out: % inh at 10 μM
Histamine H2 = Histamine H2 (Homo sapiens, UniProt P25021); experiment: Lead Profiling Screen – Eurofins Panlabs; type: binding; details: read-out: % inh at 10 μM
Muscarinic M1 = Muscarinic M1 (Homo sapiens, UniProt P11229); experiment: Lead Profiling Screen – Eurofins Panlabs; type: binding; details: read-out: % inh at 10 μM
Muscarinic M3 = Muscarinic M3 (Homo sapiens, UniProt P20309); experiment: Lead Profiling Screen – Eurofins Panlabs; type: binding; details: read-out: % inh at 10 μM
Purinergic P2Y = experiment: Lead Profiling Screen – Eurofins Panlabs; type: binding, rat
[4] = target: Serotonin (5-Hydroxytryptamine) 5-HT2B (Homo sapiens, UniProt P41595); experiment: Lead Profiling Screen – Eurofins Panlabs; type: binding; details: read-out: % inh at 10 μM
[5] = target: Serotonin (5-Hydroxytryptamine) 5-HT3 (Homo sapiens, UniProt P46098); experiment: Lead Profiling Screen – Eurofins Panlabs; type: binding; details: read-out: % inh at 10 μM
Tachykinin NK1 = Tachykinin NK1 (Homo sapiens, UniProt P25103); experiment: Lead Profiling Screen – Eurofins Panlabs; type: binding; details: read-out: % inh at 10 μM
[6] = target: Transporter, Dopamine (DAT) (Homo sapiens, UniProt Q01959); experiment: Lead Profiling Screen – Eurofins Panlabs; type: binding; details: read-out: % inh at 10 μM
[7] = target: Transporter, Serotonin (5-Hydroxytryptamine) (SERT) (Homo sapiens, UniProt P31645); experiment: Lead Profiling Screen – Eurofins Panlabs; type: binding; details: read-out: % inh at 10 μM
[8] = male, plasma, dog (beagle), iv 0.5 mg/kg
[9] = male, plasma, dog (beagle), po 1.0 mg/kg, fasted

T1 sequence (P10635 whole entry): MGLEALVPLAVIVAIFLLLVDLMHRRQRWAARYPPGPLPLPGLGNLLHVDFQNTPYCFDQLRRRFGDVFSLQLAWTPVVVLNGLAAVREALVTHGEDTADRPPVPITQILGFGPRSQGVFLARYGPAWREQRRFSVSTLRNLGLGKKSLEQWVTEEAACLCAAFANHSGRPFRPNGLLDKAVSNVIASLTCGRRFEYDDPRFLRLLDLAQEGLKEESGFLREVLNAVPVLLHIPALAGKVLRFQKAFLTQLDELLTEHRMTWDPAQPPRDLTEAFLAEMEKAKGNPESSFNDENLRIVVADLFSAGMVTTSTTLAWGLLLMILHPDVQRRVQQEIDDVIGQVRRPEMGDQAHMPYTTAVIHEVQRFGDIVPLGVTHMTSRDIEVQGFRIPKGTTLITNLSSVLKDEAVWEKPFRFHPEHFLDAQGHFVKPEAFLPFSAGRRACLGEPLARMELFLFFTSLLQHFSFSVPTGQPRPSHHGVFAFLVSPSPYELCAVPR
Chain of human M1 (P11229 whole entry): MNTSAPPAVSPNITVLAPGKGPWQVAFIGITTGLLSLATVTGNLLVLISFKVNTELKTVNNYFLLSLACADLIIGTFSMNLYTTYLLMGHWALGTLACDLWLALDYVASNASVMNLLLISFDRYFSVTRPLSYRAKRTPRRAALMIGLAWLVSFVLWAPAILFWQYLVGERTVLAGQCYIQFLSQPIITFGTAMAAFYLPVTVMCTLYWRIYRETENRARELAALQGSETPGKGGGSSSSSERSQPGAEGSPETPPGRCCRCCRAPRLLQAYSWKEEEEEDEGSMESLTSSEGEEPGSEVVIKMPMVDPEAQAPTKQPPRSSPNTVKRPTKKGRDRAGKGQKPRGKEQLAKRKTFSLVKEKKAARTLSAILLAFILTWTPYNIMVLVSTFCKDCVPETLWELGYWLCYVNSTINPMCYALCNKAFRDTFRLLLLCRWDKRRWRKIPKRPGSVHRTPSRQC
Chain of Transporter, Serotonin (5-Hydroxytryptamine) (SERT) (P31645 whole entry): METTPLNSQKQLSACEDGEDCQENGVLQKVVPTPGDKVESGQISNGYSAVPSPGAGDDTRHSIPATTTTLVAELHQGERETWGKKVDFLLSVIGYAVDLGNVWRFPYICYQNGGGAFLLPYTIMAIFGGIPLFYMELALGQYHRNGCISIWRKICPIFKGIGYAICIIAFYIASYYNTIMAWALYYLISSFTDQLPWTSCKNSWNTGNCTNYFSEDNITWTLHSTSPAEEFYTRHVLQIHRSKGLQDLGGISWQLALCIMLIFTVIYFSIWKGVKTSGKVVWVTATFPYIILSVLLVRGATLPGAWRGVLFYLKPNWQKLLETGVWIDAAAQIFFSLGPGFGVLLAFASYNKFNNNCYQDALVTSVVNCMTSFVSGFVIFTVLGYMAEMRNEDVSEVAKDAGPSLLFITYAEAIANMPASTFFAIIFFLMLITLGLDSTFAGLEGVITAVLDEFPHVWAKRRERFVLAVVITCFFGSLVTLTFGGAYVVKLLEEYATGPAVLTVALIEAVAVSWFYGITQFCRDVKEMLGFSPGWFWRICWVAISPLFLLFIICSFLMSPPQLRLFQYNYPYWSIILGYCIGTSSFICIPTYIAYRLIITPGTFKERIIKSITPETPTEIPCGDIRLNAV
Chain of Muscarinic M1 (P11229 whole entry): as the sequence (P11229 whole entry) above
Chain of Tachykinin NK1 (P25103 whole entry): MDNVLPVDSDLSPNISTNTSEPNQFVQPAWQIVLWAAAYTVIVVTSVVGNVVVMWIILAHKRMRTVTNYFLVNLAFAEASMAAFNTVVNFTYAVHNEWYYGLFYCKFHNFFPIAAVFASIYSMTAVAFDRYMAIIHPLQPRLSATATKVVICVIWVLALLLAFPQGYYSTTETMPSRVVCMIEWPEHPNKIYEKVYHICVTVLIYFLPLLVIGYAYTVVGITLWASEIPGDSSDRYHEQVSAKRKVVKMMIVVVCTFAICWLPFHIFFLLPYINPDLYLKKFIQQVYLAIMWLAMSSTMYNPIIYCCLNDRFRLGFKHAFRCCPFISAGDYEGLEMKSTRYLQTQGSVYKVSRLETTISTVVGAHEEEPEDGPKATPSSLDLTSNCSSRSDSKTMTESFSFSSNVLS
Chain of Histamine H1 (P35367 whole entry): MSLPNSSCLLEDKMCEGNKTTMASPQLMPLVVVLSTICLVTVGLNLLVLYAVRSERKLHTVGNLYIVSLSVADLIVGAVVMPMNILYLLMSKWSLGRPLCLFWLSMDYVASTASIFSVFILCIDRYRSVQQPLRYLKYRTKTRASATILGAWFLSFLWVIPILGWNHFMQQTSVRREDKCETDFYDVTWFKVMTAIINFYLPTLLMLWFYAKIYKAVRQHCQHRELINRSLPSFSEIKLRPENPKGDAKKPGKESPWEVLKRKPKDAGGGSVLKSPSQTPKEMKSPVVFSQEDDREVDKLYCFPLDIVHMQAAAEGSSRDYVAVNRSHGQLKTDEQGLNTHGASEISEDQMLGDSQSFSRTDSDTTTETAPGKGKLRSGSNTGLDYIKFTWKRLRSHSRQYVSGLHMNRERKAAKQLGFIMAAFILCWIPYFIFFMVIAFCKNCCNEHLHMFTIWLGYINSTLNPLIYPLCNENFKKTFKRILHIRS
Chain of Serotonin (5-Hydroxytryptamine) 5-HT2B (P41595 whole entry): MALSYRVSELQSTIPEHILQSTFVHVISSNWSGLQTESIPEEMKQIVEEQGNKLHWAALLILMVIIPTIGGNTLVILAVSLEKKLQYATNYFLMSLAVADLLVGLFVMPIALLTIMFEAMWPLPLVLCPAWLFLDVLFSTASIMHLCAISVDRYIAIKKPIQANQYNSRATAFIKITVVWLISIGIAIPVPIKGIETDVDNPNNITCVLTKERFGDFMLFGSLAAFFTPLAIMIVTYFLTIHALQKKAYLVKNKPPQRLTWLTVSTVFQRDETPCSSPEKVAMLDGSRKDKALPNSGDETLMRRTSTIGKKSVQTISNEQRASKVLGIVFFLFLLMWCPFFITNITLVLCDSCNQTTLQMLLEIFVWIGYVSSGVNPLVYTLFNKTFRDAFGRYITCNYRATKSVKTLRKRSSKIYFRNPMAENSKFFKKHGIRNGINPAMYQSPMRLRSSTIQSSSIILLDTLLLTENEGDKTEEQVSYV
Chain of Transporter, Dopamine (DAT) (Q01959 whole entry): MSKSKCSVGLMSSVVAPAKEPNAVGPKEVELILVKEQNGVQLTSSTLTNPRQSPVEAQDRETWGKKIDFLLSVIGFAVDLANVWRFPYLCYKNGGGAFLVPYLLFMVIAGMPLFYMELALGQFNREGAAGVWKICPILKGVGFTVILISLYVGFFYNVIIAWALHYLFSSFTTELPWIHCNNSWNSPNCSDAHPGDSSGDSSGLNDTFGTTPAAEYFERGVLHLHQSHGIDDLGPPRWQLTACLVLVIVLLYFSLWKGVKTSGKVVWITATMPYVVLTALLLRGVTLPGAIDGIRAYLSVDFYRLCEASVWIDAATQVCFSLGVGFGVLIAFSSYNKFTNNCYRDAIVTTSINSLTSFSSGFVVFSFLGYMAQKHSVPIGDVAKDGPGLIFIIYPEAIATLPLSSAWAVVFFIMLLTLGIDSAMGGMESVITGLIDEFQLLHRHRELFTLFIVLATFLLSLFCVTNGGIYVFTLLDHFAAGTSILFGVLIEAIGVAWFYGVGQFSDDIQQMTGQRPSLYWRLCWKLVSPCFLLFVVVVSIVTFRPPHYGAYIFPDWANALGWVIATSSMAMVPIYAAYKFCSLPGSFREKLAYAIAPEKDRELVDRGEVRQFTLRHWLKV
Chain of Serotonin (5-Hydroxytryptamine) 5-HT3 (P46098 24-478): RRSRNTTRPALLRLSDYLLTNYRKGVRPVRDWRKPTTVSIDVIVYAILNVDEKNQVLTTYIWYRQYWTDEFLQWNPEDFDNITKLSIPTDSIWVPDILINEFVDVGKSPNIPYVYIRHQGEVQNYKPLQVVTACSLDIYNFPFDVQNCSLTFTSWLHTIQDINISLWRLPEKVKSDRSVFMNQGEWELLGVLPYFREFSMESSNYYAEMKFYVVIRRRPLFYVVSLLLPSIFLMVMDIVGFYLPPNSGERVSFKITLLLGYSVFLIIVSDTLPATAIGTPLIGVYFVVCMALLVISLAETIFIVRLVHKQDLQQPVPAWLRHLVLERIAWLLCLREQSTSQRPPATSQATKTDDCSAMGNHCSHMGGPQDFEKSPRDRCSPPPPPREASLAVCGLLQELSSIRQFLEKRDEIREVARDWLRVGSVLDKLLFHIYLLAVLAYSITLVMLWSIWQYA
Chain of Histamine H2 (P25021 whole entry): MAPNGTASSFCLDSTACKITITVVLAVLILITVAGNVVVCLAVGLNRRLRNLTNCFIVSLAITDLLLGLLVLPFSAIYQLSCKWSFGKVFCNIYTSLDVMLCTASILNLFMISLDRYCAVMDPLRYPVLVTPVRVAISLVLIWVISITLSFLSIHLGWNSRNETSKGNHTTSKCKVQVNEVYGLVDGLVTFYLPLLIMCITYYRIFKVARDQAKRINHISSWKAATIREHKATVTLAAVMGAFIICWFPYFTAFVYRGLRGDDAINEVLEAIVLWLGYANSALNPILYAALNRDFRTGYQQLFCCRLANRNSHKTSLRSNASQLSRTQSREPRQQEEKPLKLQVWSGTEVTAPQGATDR
T3 sequence (P46663 whole entry): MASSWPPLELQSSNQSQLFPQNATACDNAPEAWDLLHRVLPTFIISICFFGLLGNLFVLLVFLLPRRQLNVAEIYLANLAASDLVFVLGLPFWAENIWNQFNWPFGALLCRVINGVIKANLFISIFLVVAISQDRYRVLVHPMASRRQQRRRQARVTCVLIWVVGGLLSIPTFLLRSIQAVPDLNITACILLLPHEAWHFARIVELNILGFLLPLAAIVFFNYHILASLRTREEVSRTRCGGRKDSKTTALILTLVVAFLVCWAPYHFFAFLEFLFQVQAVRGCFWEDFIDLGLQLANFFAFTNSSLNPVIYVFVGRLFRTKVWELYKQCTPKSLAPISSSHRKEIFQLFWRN

Q: For `Cc1nc(C)c2c(n1)sc1c(NCc3ccc(C(C)(C)O)cc3)nccc12` [22g], which “human M1 %Ach Max” value (human M1) is on record?
A: inactive

Q: What about the “human M1 EC50” value (human M1) of the same compound?
A: inactive

Q: What about the IC50 (CYP 2D6) of the same compound?
A: > 30 µM

Q: And the “plasma clearance as % hepatic blood flow” value (In vivo dog iv/po PK; dog)?
A: ~78 % hepatic blood flow

Q: What about the CLp (In vivo dog iv/po PK; dog (beagle), iv 0.5 mg/kg, listed as VU6016235, 0.5 mg/kg) of the same compound?
A: 23.8 mL/min/kg

Q: What about the clearance (In vivo dog iv/po PK; male, beagle, dog, plasma, iv, 0.5 mg/kg, dog (beagle), iv 0.5 mg/kg, read-out: CLp) of the same compound?
A: ~24 mL/min/kg

Q: What about the MRT (In vivo dog iv/po PK; [8]) of the same compound?
A: 1.6 h

Q: What about the half-life (In vivo dog iv/po PK; [8]) of the same compound?
A: 144 min

Q: And the Vd (In vivo dog iv/po PK; male, plasma, dog (beagle), iv 0.5 mg/kg, read-out: Vss)?
A: 2.3 L/kg

Q: And the AUC(0-inf) (In vivo dog iv/po PK; [9])?
A: 200 ng·h/mL

Q: And the Cmax (In vivo dog iv/po PK; [9])?
A: 62.4 ng/mL

Q: And the Tmax (In vivo dog iv/po PK; [9])?
A: 49.8 min

Q: And the bioavailability (In vivo dog iv/po PK; [9])?
A: 27.5%

Q: And the “Mini Ames test result” value (4 strains ± S9)?
A: negative

Q: And the inhibition at 10 µM (Adenosine A2A)?
A: 28%

Q: What about the inhibition at 10 µM (Bradykinin B1) of the same compound?
A: -1%

Q: What about the “% inh at 10 μM” value [1] of the same compound?
A: -1%

Q: And the “% inh at 10 μM” value [2]?
A: 13%

Q: And the inhibition at 10 µM (Glucocorticoid)?
A: -10%

Q: And the “% inh at 10 μM” value [3]?
A: -2%

Q: And the inhibition at 10 µM (Histamine H1)?
A: -11%

Q: And the inhibition at 10 µM (Histamine H2)?
A: -17%

Q: What about the inhibition at 10 µM (Muscarinic M1) of the same compound?
A: 0%

Q: And the inhibition at 10 µM (Muscarinic M3)?
A: 4%

Q: What about the “% inh at 10 μM” value (Purinergic P2Y) of the same compound?
A: 9%

Q: What about the inhibition at 10 µM [4] of the same compound?
A: 16%

Q: What about the inhibition at 10 µM [5] of the same compound?
A: -20%

Q: What about the inhibition at 10 µM (Tachykinin NK1) of the same compound?
A: 8%

Q: And the inhibition at 10 µM [6]?
A: 25%

Q: What about the inhibition at 10 µM [7] of the same compound?
A: 1%
